Experimental data published in PubChem BioAssay (NCI).
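48-hour exposure; five concentrations; linearly interpolated endpoints. At the TGI there is no net growth.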

How the values were obtained:
Experiment in all cases: NCI tumour cell line growth inhibition, 48 h
OVCAR-5 ovarian = test system: OVCAR-5 ovarian
SW-620 colon = test system: SW-620 colon
IGROV1 ovarian = test system: IGROV1 ovarian
UACC-257 melanoma = test system: UACC-257 melanoma
UO-31 renal = test system: UO-31 renal
MOLT-4 leukemia = test system: MOLT-4 leukemia
HOP-92 NSCLC = test system: HOP-92 NSCLC
TK-10 renal = test system: TK-10 renal
SN12C renal = test system: SN12C renal
SK-MEL-2 melanoma = test system: SK-MEL-2 melanoma
CCRF-CEM leukemia = test system: CCRF-CEM leukemia
SF-268 CNS = test system: SF-268 CNS
OVCAR-3 ovarian = test system: OVCAR-3 ovarian
SR leukemia = test system: SR leukemia
SF-539 CNS = test system: SF-539 CNS
NCI-H23 lung = test system: NCI-H23 lung
HS 578T breast = test system: HS 578T breast
KM12 colon = test system: KM12 colon
ACHN renal = test system: ACHN renal
MCF7 breast = test system: MCF7 breast
MDA-N = test system: MDA-N
BT-549 breast = test system: BT-549 breast
HCC-2998 colon = test system: HCC-2998 colon
U251 CNS = test system: U251 CNS
OVCAR-4 ovarian = test system: OVCAR-4 ovarian
EKVX NSCLC = test system: EKVX NSCLC
A498 renal = test system: A498 renal
M14 melanoma = test system: M14 melanoma
T-47D breast = test system: T-47D breast
HCT-116 colon = test system: HCT-116 colon
HT29 colon = test system: HT29 colon
MDA-MB-435 = test system: MDA-MB-435
SF-295 CNS = test system: SF-295 CNS
RXF 393 renal = test system: RXF 393 renal
HOP-62 NSCLC = test system: HOP-62 NSCLC
SK-MEL-5 melanoma = test system: SK-MEL-5 melanoma
PC-3 prostate = test system: PC-3 prostate
MDA-MB-231 breast = test system: MDA-MB-231 breast
NCI-H460 lung = test system: NCI-H460 lung
NCI/ADR-RES ovarian = test system: NCI/ADR-RES ovarian
UACC-62 melanoma = test system: UACC-62 melanoma
OVCAR-8 ovarian = test system: OVCAR-8 ovarian
COLO 205 colon = test system: COLO 205 colon
MALME-3M melanoma = test system: MALME-3M melanoma
HL-60(TB) leukemia = test system: HL-60(TB) leukemia
HCT-15 colon = test system: HCT-15 colon
LOX IMVI melanoma = test system: LOX IMVI melanoma
786-0 renal = test system: 786-0 renal
SNB-19 CNS = test system: SNB-19 CNS
SK-OV-3 ovarian = test system: SK-OV-3 ovarian
SK-MEL-28 melanoma = test system: SK-MEL-28 melanoma
CAKI-1 renal = test system: CAKI-1 renal
NCI-H522 lung = test system: NCI-H522 lung
DU-145 prostate = test system: DU-145 prostate
A549 NSCLC = test system: A549 NSCLC
K-562 leukemia = test system: K-562 leukemia
KM20L2 colon = test system: KM20L2 colon
DMS 273 small cell lung = test system: DMS 273 small cell lung
M19-MEL melanoma = test system: M19-MEL melanoma
DMS 114 small cell lung = test system: DMS 114 small cell lung
SNB-78 CNS = test system: SNB-78 CNS

Work on `CCN(CC)Cc1ccc(Nc2c3ccccc3nc3ccccc23)cc1` yielded a TGI (OVCAR-5 ovarian) of 5.46 µM, a TGI (SW-620 colon) of 4.12 µM and a TGI (IGROV1 ovarian) of 13.9 µM. For the same compound, the TGI (UACC-257 melanoma) was 3.21 µM, the TGI (UO-31 renal) was 5.22 µM and the TGI (MOLT-4 leukemia) was greater than 100 µM. The TGI (HOP-92 NSCLC) was 11.9 µM, the TGI (TK-10 renal) was 18.8 µM and the TGI (SN12C renal) was 7.66 µM. It also gave a TGI (SK-MEL-2 melanoma) of 7.27 µM, a TGI (CCRF-CEM leukemia) of 8.28 µM and a TGI (SF-268 CNS) of 9.38 µM. The TGI (OVCAR-3 ovarian) was 12.8 µM, the TGI (SR leukemia) was 22.2 µM and the TGI (SF-539 CNS) was 3.45 µM. For the same compound, the TGI (NCI-H23 lung) was 4.52 µM, the TGI (HS 578T breast) was 21.8 µM and the TGI (KM12 colon) was 13.1 µM. It also gave a TGI (ACHN renal) of 1.22 µM, a TGI (MCF7 breast) of 4.36 µM and a TGI (MDA-N) of 3.23 µM. For the same compound, the TGI (BT-549 breast) was 23.6 µM, the TGI (HCC-2998 colon) was 2.4 µM and the TGI (U251 CNS) was 6.68 µM. For the same compound, the TGI (OVCAR-4 ovarian) was 7.64 µM, the TGI (EKVX NSCLC) was 26.2 µM and the TGI (A498 renal) was 9.41 µM. For the same compound, the TGI (M14 melanoma) was 3.15 µM, the TGI (T-47D breast) was 16.7 µM and the TGI (HCT-116 colon) was 6.99 µM. The TGI (HT29 colon) was 22.3 µM, the TGI (MDA-MB-435) was 4.17 µM and the TGI (SF-295 CNS) was 10.9 µM. For the same compound, the TGI (RXF 393 renal) was 3.96 µM, the TGI (HOP-62 NSCLC) was 6.84 µM and the TGI (SK-MEL-5 melanoma) was 3.15 µM. The TGI (PC-3 prostate) was 3.68 µM, the TGI (MDA-MB-231 breast) was 4.64 µM and the TGI (NCI-H460 lung) was 3.05 µM. For the same compound, the TGI (NCI/ADR-RES ovarian) was 22.4 µM, the TGI (UACC-62 melanoma) was 3.66 µM and the TGI (OVCAR-8 ovarian) was 15 µM. For the same compound, the TGI (COLO 205 colon) was 5.78 µM, the TGI (MALME-3M melanoma) was 3.61 µM and the TGI (HL-60(TB) leukemia) was greater than 100 µM. It also gave a TGI (HCT-15 colon) of 2.56 µM, a TGI (LOX IMVI melanoma) of 3.3 µM and a TGI (786-0 renal) of 10 µM. For the same compound, the TGI (SNB-19 CNS) was 3.22 µM, the TGI (SK-OV-3 ovarian) was 5.56 µM and the TGI (SK-MEL-28 melanoma) was 4.69 µM. For the same compound, the TGI (CAKI-1 renal) was 4.66 µM, the TGI (NCI-H522 lung) was 3.56 µM and the TGI (DU-145 prostate) was 7.01 µM. It also gave a TGI (A549 NSCLC) of 2.82 µM and a TGI (K-562 leukemia) of 7.69 µM.
In the case of `CCCC(=O)OC1C(C2COC(C)(C)O2)OC2OC(C)(C)OC21` (stereo unspecified), the TGI (OVCAR-5 ovarian) is reported as greater than 100 µM, the TGI (IGROV1 ovarian) is reported as greater than 100 µM and the TGI (UACC-257 melanoma) is reported as greater than 100 µM. The TGI (UO-31 renal) was greater than 100 µM, the TGI (MOLT-4 leukemia) was greater than 100 µM and the TGI (HOP-92 NSCLC) was greater than 100 µM. It also gave a TGI (TK-10 renal) greater than 100 µM, a TGI (CCRF-CEM leukemia) greater than 100 µM and a TGI (KM20L2 colon) greater than 100 µM. For the same compound, the TGI (SR leukemia) was greater than 100 µM, the TGI (DMS 273 small cell lung) was greater than 100 µM and the TGI (M19-MEL melanoma) was greater than 100 µM. For the same compound, the TGI (NCI-H23 lung) was greater than 100 µM, the TGI (KM12 colon) was greater than 100 µM and the TGI (ACHN renal) was greater than 100 µM. The TGI (U251 CNS) was greater than 100 µM, the TGI (EKVX NSCLC) was greater than 100 µM and the TGI (A498 renal) was greater than 100 µM. For the same compound, the TGI (DMS 114 small cell lung) was greater than 100 µM, the TGI (M14 melanoma) was greater than 100 µM and the TGI (HCT-116 colon) was greater than 100 µM. For the same compound, the TGI (HT29 colon) was greater than 100 µM, the TGI (SF-295 CNS) was greater than 100 µM and the TGI (RXF 393 renal) was greater than 100 µM. The TGI (HOP-62 NSCLC) was greater than 100 µM, the TGI (SNB-78 CNS) was greater than 100 µM and the TGI (NCI-H460 lung) was greater than 100 µM. The TGI (UACC-62 melanoma) was greater than 100 µM, the TGI (OVCAR-8 ovarian) was greater than 100 µM and the TGI (HL-60(TB) leukemia) was greater than 100 µM. It also gave a TGI (SNB-19 CNS) greater than 100 µM, a TGI (SK-OV-3 ovarian) greater than 100 µM and a TGI (SK-MEL-28 melanoma) greater than 100 µM. It also gave a TGI (NCI-H522 lung) greater than 100 µM and a TGI (K-562 leukemia) greater than 100 µM.
